Assay results from patent US20170281772A1, “A NEURAL SUBSTRATE FOR SUGAR PREFERENCE” (The Trustees of Columbia University in the City of New York, priority 2014, published 2017).
Entries after “also recorded” stand apart in the source; their conditions may differ.

Tests used:
[1] = two-solution preference behavioral assay, artificial sweetener (AceK) versus sucrose, naive animals; format: in vivo, mice
Description: To explicitly test for sugar preference in mice, applicants developed a simple behavioral assay.
During five minute trials, two groups of five naive animals were presented with an intensely sweet, artificial compound (Acesulfame potassium or AceK) and a less sweet natural sugar (sucrose) . […] Animals were then returned to their home cage and given access to either artificial sweetener (Group 1) or natural sugar (Group 2) for one hour. […] Twenty four hours later, Group 1 was given natural sugar while Group 2 was given artificial sweetener.

[2] = tested on: neurons in the caudal nucleus of the solitary tract (cNST); experiment: cFos staining of the caudal nucleus of the solitary tract after drinking the solution; format: in vivo, mice; conditions: for cFos labeling of cNST neurons: wild-type animals, water deprived thirty-six hours, 1 mL solution by drinking
Method: To determine where sugar preference is encoded, applicants screen brain regions for increased expression of Fos, a proxy for neural activity, in animals challenged with sugar but not water or artificial sweetener.
Wild-type animals were water deprived for thirty-six hours and then given access to 1 mL solution of water (FIG. 3A), sucrose (FIG. 3), or artificial sweetener (FIG. 3C). Tasteless (TrpM5 knockout) animals were given water (FIG. 3D) or sucrose (FIG. 3E), The caudal nucleus of the solitary tract was analyzed using cFos staining. […] Green: c-fos antibody staining. Magenta: a neural stain (neurotrace) (FIG. 3A-3D).

[3] = tested on: neurons in the caudal nucleus of the solitary tract (cNST); experiment: cFos staining of the nucleus of the solitary tract after direct infusion to the gut; format: in vivo; conditions: for Fos expression in the cNST when gavaged: gavage, compared with animals drinking the same solution; for cFos labeling of cNST neurons after gut infusion: wild type animals, 0.5 mL infused directly into the gut
Method: Wild type animals were infused directly into the gut with 0.5 mL of water (FIG. 4A), sucrose (FIG. 4B), or artificial sweetener (FIG. 4C). […] Green: c-fos antibody staining. Magenta; a neural stain (neurotrace) (FIG. 4A-4C).

[4] = consumption trials of sucralose with or without MDG in a satiated animal; format: in vivo; conditions: 32 mM sucralose+0.4 M MDG vs 32 mM sucralose alone, 20 trials
Method: A satiated animal was given 32 mM sucralose for the first 11 trials, and then given either 32 mM sucralose alone, or 32 mM sucralose+0.4 M MDG. […] Shown are 20 trials.

[5] = tested on: activity in the cNST; experiment: silencing of cNST activity by cannula injection during sucrose exposure, sugar preference formation; format: in vivo
Description: When given a choice between highly concentrated artificial sweetener and a low concentration of natural sweet, animals consume the sweeter substance. However, after one exposure to natural sugar, animals switch their preference to the natural sweet (See FIG. 5). If the cNST is indeed an essential brain center for establishing sugar preference, a prediction would be that silencing the activity of the neurons in this nucleus during exposure to sugar should prevent a preference from forming. To determine if this is the case, applicants implanted a cannula above the cNST of naive animals, waited 2 weeks for recovery, and then assessed the ability of these animals to form a sugar preference. […] Prior to receiving sugar in their home cage, animals were injected with a glutamate receptor antagonist (50 nL of NBQX, […]) to reversibly silence activity in the cNST.

SMILES: CC1=CC(=O)NS(=O)(=O)O1 [AceK, Acesulfame potassium]
- initial consumption, AceK versus sucrose ([1]; five minute trials, naive animals, before home-cage exposure): much more AceK than sucrose
- cFos labeling of cNST neurons [2]: almost no labeled cells at all
- Fos expression in the cNST when gavaged [3]: identical
- cFos labeling of cNST neurons after gut infusion [3]: almost no labeled cells at all

SMILES: COC1OC(CO)C(O)C(O)C1O [MDG, Alpha-Methyl-D-Glucopyranose]
- appetitiveness/consumption of sucralose [4]: dramatically increases the appetitiveness/consumption of sucralose; also recorded: transforms a sucralose solution into the preferred Artificial Sweetener

SMILES: NS(=O)(=O)c1cccc2c1c([N+](=O)[O-])cc1nc(O)c(O)nc12 [NBQX]
- formation of sugar preference with the cNST silenced ([5]; 50 nL of NBQX, 5 pg/mL, injected above the cNST prior to sugar in home cage, tested twenty-four hours later): continued to prefer the artificial sweetener
- sugar preference formation after washout ([5]; after the drug washed out): regained their ability to form a preference
- effect of silencing on sweet taste ([5]; short-access assays, same animals): does not abolish sweet taste

SMILES: OC[C@H]1O[C@@](CO)(O[C@H]2O[C@H](CO)[C@@H](O)[C@H](O)[C@H]2O)[C@@H](O)[C@@H]1O [sucrose]
- preference between artificial sweetener and sucrose after exposure to sucrose ([1]; after one hour home-cage access to natural sugar, final preference test): animals change preference between artificial sweetener and sucrose after one exposure to sucrose; also recorded: both groups prefer the natural sugar
- cFos labeling of cNST neurons in tasteless animals ([2]; TrpM5 knockout animals, compared with wild type): identical pattern of labeling
- cFos labeling of cNST neurons [2]: robustly labeled
- Fos expression in the cNST when gavaged [3]: identical
- cFos labeling of cNST neurons after gut infusion [3]: robustly labeled
